In general, MIC50 refers to the lowest concentration that inhibits either 50% of growth or 50% of the strains tested, depending on the study. A low value points to greater potency.

SMILES strings stand for the structures. Converted amounts (≈) assume the structure as drawn.

We go through one compound from US20250034139A1, “AMINE COMPOUNDS HAVING ANTI-INFLAMMATORY, ANTIFUNGAL, ANTIPARASITIC, AND ANTICANCER ACTIVITY” (PHARMA CINQ, LLC, priority 2013, published 2025).

The test system of the first assay is THP-1 cells. Nature of the assay: Example C: compound screen, viable THP-1 cell count after 5 hours +/- LPS. Type of assay: cell-based, Human. The settings on record: Compound (0.1 μM), No LPS. The text has this: Background: THP-1 is a human acute myeloid leukemia (AML) cell line that can be induced into a macrophage-like cell with vitamin-D3 (vit-D3). In the macrophage, LPS (lipopolysaccharide; endotoxin) stimulation of toll-like receptor 4 (TLR-4) leads to NF-κB activation and secretion of inflammatory cytokines but also the priming of programmed death pathways through RIP and Caspase 8. The balance of this complex regulatory network is dependent on highly specific kinases, enzymes that require ATP. Disruption of either cytosolic pH or ATP availability/energy level uncouples this control network and the can macrophage shift away from production of inflammatory cytokines towards a programmed death event, which has the net effect of limiting inflammatory damage.
Regarding `CCCCCCOc1cccc(CNc2ccnc3ccccc23)c1` [Compound AC, N-[3-(Hexyloxy)benzyl]quinolin-4-amine], the “Reduction in viable THP-1 cell count (percent change) from 0 hours, Mean ± SE” value was −7.48 ± 5.82%.

Still in this assay, the particulars now being: Compound (0.1 μM), Plus LPS.
With `CCCCCCOc1cccc(CNc2ccnc3ccccc23)c1` [Compound AC, N-[3-(Hexyloxy)benzyl]quinolin-4-amine], the “Reduction in viable THP-1 cell count (percent change) from 0 hours, Mean ± SE” value is reported as −15.14 ± 2.06%.

Staying with this assay, now noted: Compound (1.0 μM), No LPS.
As for `CCCCCCOc1cccc(CNc2ccnc3ccccc23)c1` [Compound AC, N-[3-(Hexyloxy)benzyl]quinolin-4-amine], the “Reduction in viable THP-1 cell count (percent change) from 0 hours, Mean ± SE” value is listed as −9.60 ± 1.96%.

Staying with this assay, now noted: Compound (1.0 μM), Plus LPS.
Take `CCCCCCOc1cccc(CNc2ccnc3ccccc23)c1` [Compound AC, N-[3-(Hexyloxy)benzyl]quinolin-4-amine]: the “Reduction in viable THP-1 cell count (percent change) from 0 hours, Mean ± SE” value was −44.25 ± 2.53%.

A further assay relates to Trichophyton rubrum. Nature of the assay: Example J: Trichophyton rubrum growth inhibition, scoring by eye. Type of assay: cell-based. The settings on record: Trichophyton rubrum, 144 h; 6 days at 30° C., tested 6 to 40 μM; read-out: MIC, μM (maximum inhibition concentration, scoring by eye). A digest of the protocol: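 Filtered T. rubrum suspension from PDA plates (grown 4 days, 30 °C) treated with diluted compounds in triplicate, incubated 6 days at 30 °C. Plates imaged; MIC scored by eye.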
Consider `CCCCCCOc1cccc(CNc2ccnc3ccccc23)c1` [Compound AC, N-[3-(Hexyloxy)benzyl]quinolin-4-amine], for which the MIC turned out to be 18 µM (≈ 6.02 µg/mL).

Another assay relates to Candida glabrata strains. Description: Example N: MIC and MFC (CLSI) against Candida glabrata. The settings on record: 3 strains. Type of assay: cell-based. How it is done: (§1) The objective of this study was to determine the antifungal activity of eight experimental compounds against a representative panel of fungal isolates, including Candida albicans, C. glabrata, Cryptococcus neoformans, Trichophyton rubrum, Aspergillus fumigatus, and Rhizopus spp. Antifungal activity was measured by minimum inhibitory concentration (MIC) and minimum fungicidal concentration (MFC).
(§2) Three recent clinical strains of each species, taken from the culture collection at the Center for Medical Mycology, Case Western University, were tested.
(§3) Compounds in powder form were dissolved in DMSO. Serial dilutions of each compound were then prepared in RPMI-1640 in a range of […].
(§4) MIC testing was performed according to the CLSI M27-A3 and M38-A2 standards for the susceptibility testing of yeasts and filamentous fungi, respectively (1, 2). Test isolates were subcultured from frozen slants onto potato dextrose agar plates (Trichophyton rubrum was subcultured onto oatmeal plates for conidia production) and checked for purity. Inocula were then prepared in RPMI-1640 (YNB for Cryptococcus) to a concentration of 0.5-2.5×10^3 colony-forming units (CFU)/ml or 0.4-5×10^4 conidia/ml for yeast and filamentous fungi, respectively.
(§5) MFC determinations were performed according to the modifications previously described by Canton et al. and Ghannoum and Isham. (3, 4) Specifically, the total contents of each clear well from the MIC assay were subcultured onto potato dextrose agar. To avoid antifungal carryover, the aliquots were allowed to soak into the agar and then were streaked for isolation once dry, thus removing the cells from the drug source.
As to `CCCCCCOc1cccc(CNc2ccnc3ccccc23)c1` [Compound AC, N-[3-(Hexyloxy)benzyl]quinolin-4-amine], the “cidal activity (MFC within 4 dilutions of the MIC), in words” value is recorded as “cidal against all of the C. glabrata strains tested”.

Staying with this assay, now noted: Nakaseomyces glabratus, 24 h.
`CCCCCCOc1cccc(CNc2ccnc3ccccc23)c1` [Compound AC, N-[3-(Hexyloxy)benzyl]quinolin-4-amine] showed an MIC50 of 0.5 to 1 µg/mL (≈ 1.49 to 2.99 µM).

Still in this assay, the particulars now being: Nakaseomyces glabratus, 24 h, read-out: MIC 100%.
On to `CCCCCCOc1cccc(CNc2ccnc3ccccc23)c1` [Compound AC, N-[3-(Hexyloxy)benzyl]quinolin-4-amine], for which the MIC was 1 to 2 µg/mL (≈ 2.99 to 5.98 µM).

The same assay, now with this note: Nakaseomyces glabratus, 48 h.
The compound `CCCCCCOc1cccc(CNc2ccnc3ccccc23)c1` [Compound AC, N-[3-(Hexyloxy)benzyl]quinolin-4-amine] displayed an MIC50 of 1 to 2 µg/mL (≈ 2.99 to 5.98 µM).

The assay is the same for the next values; noted with them: Nakaseomyces glabratus, 48 h, read-out: MIC 100%.
With `CCCCCCOc1cccc(CNc2ccnc3ccccc23)c1` [Compound AC, N-[3-(Hexyloxy)benzyl]quinolin-4-amine], the MIC fell in the range of 2 to 4 µg/mL (≈ 5.98 to 12 µM).

Still in this assay, the particulars now being: Nakaseomyces glabratus; range over Candida glabrata strains, in 48 hr.
Turning to `CCCCCCOc1cccc(CNc2ccnc3ccccc23)c1` [Compound AC, N-[3-(Hexyloxy)benzyl]quinolin-4-amine], the MFC was in the range of 4 to 8 µg/mL (≈ 12 to 23.9 µM).

Another assay deals with Cryptococcus neoformans strains. Description: Example N: MIC and MFC (CLSI) against Cryptococcus neoformans. Type of assay: cell-based. The settings on record: Cryptococcus neoformans, read-out: MIC 100%, Range; incubated for 72 hrs, three clinical strains. As for the experimental part: as §1, §2, §3, §4, §5
Consider `CCCCCCOc1cccc(CNc2ccnc3ccccc23)c1` [Compound AC, N-[3-(Hexyloxy)benzyl]quinolin-4-amine], for which the MIC was 0.25 to 4 µg/mL (≈ 0.747 to 12 µM).

Staying with this assay, now noted: Cryptococcus neoformans; three clinical strains.
Consider `CCCCCCOc1cccc(CNc2ccnc3ccccc23)c1` [Compound AC, N-[3-(Hexyloxy)benzyl]quinolin-4-amine], for which the MFC worked out at 8 µg/mL (≈ 23.9 µM).

The next assay deals with Aspergillus fumigatus strains. Description: Example N: MIC and MFC (CLSI) against Aspergillus fumigatus. Type of assay: cell-based. To be noted: 48 hrs. As for the experimental part: as §1, §2, §3, §4, §5
`CCCCCCOc1cccc(CNc2ccnc3ccccc23)c1` [Compound AC, N-[3-(Hexyloxy)benzyl]quinolin-4-amine]: the MIC at 100% inhibition came to 1 µg/mL (≈ 2.99 µM).

Still in this assay, the particulars now being: Aspergillus fumigatus, 24 h.
Compound `CCCCCCOc1cccc(CNc2ccnc3ccccc23)c1` [Compound AC, N-[3-(Hexyloxy)benzyl]quinolin-4-amine] returned an MIC50 of under 0.12 µg/mL.

The assay is the same for the next values; noted with them: Aspergillus fumigatus, 24 h, read-out: MIC 100%.
In the case of `CCCCCCOc1cccc(CNc2ccnc3ccccc23)c1` [Compound AC, N-[3-(Hexyloxy)benzyl]quinolin-4-amine], the MIC lay in the range of 0.25 to 0.5 µg/mL (≈ 0.747 to 1.49 µM).

Staying with this assay, now noted: Aspergillus fumigatus, 48 h.
In the case of `CCCCCCOc1cccc(CNc2ccnc3ccccc23)c1` [Compound AC, N-[3-(Hexyloxy)benzyl]quinolin-4-amine], the MIC50 fell in the range of 0.5 to 1 µg/mL (≈ 1.49 to 2.99 µM).

The same assay, now with this note: Aspergillus fumigatus, 48 h, read-out: MIC 100%.
Regarding `CCCCCCOc1cccc(CNc2ccnc3ccccc23)c1` [Compound AC, N-[3-(Hexyloxy)benzyl]quinolin-4-amine], the MIC was found to be 1 µg/mL (≈ 2.99 µM).

The next assay relates to 4T1 murine breast cancer cells. Description: Example S: in vitro anticancer screen, 4T1 cells, Wst1. Type of assay: cell-based, mouse. To be noted: Mus musculus, 4T1, 18 h, 1 μM, 18 hr, Wst1; read-out: 4T1 1 μM, percent of cancer cell survival relative to vehicle treated cells. In outline: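 Read-out is Wst1 absorbance (450 nm, reference 630 nm) after roughly 2 hr dye incubation, giving percent cell survival versus vehicle. Before that, compounds at 1 μM or 5 μM were applied for 18 hr to 4T1 cells plated at 1×10^4 per well.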
For the compound `CCCCCCOc1cccc(CNc2ccnc3ccccc23)c1` [Compound AC, N-[3-(Hexyloxy)benzyl]quinolin-4-amine], the viability at 1 µM stood at 23.3%.

The assay is the same for the next values; noted with them: Mus musculus, 4T1, 18 h, 5 μM, 18 hr, Wst1; read-out: 4T1 5 μM, percent of cancer cell survival relative to vehicle treated cells.
Regarding `CCCCCCOc1cccc(CNc2ccnc3ccccc23)c1` [Compound AC, N-[3-(Hexyloxy)benzyl]quinolin-4-amine], the viability at 5 µM came to 19.3%.

Another assay has as its system PC3 human prostate cancer cells. Nature of the assay: Example S: in vitro anticancer screen, PC-3 cells, Wst1. Type of assay: cell-based. To be noted: Homo sapiens, PC-3; 0.4 μM, approximately 20 hours, Wst1; read-out: PC-3, percent of cancer cell survival relative to vehicle treated cells. A digest of the protocol: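 Values give percent survival relative to vehicle, read by Wst1 absorbance (450/630 nm) after 2 h dye incubation, in triplicate. Cells were seeded at 2×10^4/well and treated about 20 h with compound at 0.4, 0.5 or 2.5 μM, depending on compound.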
For the compound `CCCCCCOc1cccc(CNc2ccnc3ccccc23)c1` [Compound AC, N-[3-(Hexyloxy)benzyl]quinolin-4-amine], the viability at 0.4 µM was 61.5%.
